The values below come from PMC11094793, “Discovery of LLC0424 as a Potent and Selective in Vivo NSD2 PROTAC Degrader” (Journal of Medicinal Chemistry, 2024).

The nature of data set [1]: PK parameters in rats (LC/MS/MS). Particulars: rat, in vivo; for MRT last: read-out: MRT (0-t). The source says:
Table S4. PK parameters of LLC0424 in rats a Route/dose T1/2 Tmax Cmax AUC(0-t) CL MRT Vss F(%) […]
aDetermined using LC/MS/MS. T1/2: elimination half-life; Tmax: time for maximum concentration; Cmax: maximum concentration; AUC: the area under the curve; CL: clearance; MRT: mean residence time; Vss: volume of distribution; F: oral

Data set [2] concerns NSD2-overexpressed SEM cells. The data set can be described thus: Viability of NSD2-overexpressed versus parental SEM cells. The settings on record: 2 μM LLC0424, 9 days, CTG assay. In kind it is cell-based, human. How it is done:
NSD2 is the primary methyltransferase that transfers dimethyl to H3K36 in ALL with NSD2 gain-of-function mutation. Therefore, the effects of LLC0424 on H3K36me2 was evaluated in SEM and RPMI-8402 cells. […] Meanwhile, LLC0424 treatment also led to downregulation of H3K36Me2 in RPMI-8402 cells within 24 h (Figure 6B). […] We also conducted a colony formation assay to evaluate the effect of LLC0424 on the stem cell-like property of the leukemia cells. […]
Figure S4. […] (A) SEM or RPMI-8402 cells were treated with 2 µM LLC0424, degrader 6, degrader 7, or DMSO for 9 days and quantified for cell viability by CellTiter-Glo (CTG) assay at different days. Data are reported as the mean of five independent experiments ± SD; (B) RNA sequencing of SEM cells treated with LLC0424N or DMSO; (C) Immunoblotting of NSD2, and H3 in parental and NSD2-overexpression SEM cell lines; (D) parental or NSD2 overexpression SEM cells were treated with DMSO or 2 µM LLC0424 for 9 days and quantified for cell viability by CTG assay. Data are reported as the mean of four independent experiments ± SD; (E) VCaP cells and 22RV1 cells were treated with DMSO, 2 µM LLC0424, or 2 µM LLC0424N for 18 days and quantified for cell viability by CTG assay at different days. […]

Data set [3] addresses T1, NSD2 (both long and short isoforms) (Homo sapiens, UniProt O96028).
T1 sequence (O96028 211-350 limits assumed): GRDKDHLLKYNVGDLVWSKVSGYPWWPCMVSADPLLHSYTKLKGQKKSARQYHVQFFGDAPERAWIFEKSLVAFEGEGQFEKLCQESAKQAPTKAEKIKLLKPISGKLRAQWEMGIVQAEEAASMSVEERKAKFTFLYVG
Kind of data set: NSD2 degradation by immunoblotting in ALL cell lines RPMI-8402 and SEM (NSD2 E1099K). In kind it is cell-based. The settings on record: for Dmax / DC50: 24 h. The protocol:
As previous studies have shown that ALL cell lines with NSD2 gain-of-function mutation are more dependent on NSD2 regarding H3K36me2 level and cell proliferation,[7],[8] we further characterized LLC0424 in ALL cell lines with NSD2 E1099K gain-of-function mutation (RPMI-8402 and SEM). We first treated these cells with LLC0424 with different concentrations for 24 h. […] In addition, we compared the degradation efficiency of LLC0424 with the two previously published NSD2 degraders 6 and 7 at different concentrations and time points.
After treatment, the cultured cells were collected and rinsed with phosphate-buffered saline (PBS) in room temperature. The cells were treated with RIPA buffers (ThermoFisher Scientific) supplemented with Halt Protease and Phosphatase Inhibitor Cocktail (ThermoFisher Scientific). After sonication and centrifugation, the total amount of protein in the cell lysates was measured by Pierce Bovine Serum Albumin Standard Pre-Diluted Set (ThermoFisher Scientific). After mixed with LDS-sample buffer (Invitrogen) supplemented with Sample Reducing Agent (Invitrogen) and heated in 70 °C for 10 min, equal amount of protein was loaded into NuPAGE 4–12%, Bis-Tris Protein Gel (ThermoFisher Scientific) or NuPAGE 3–8%, Tris-Acetate Protein Gel (ThermoFisher Scientific), and blotted with primary antibodies. After incubated with HRP-conjugated secondary antibodies, the membranes were developed with ECL Prime Western Blotting Detection Reagent (cytiva) and imaged on Odyssey Fc Imager (LiCOR Biosciences).

Read-outs that look alike come from different tables or passages of the source. Some results are limits rather than exact numbers.

Take `O=C1CCC(N2C(=O)c3ccc(N4CCC(NC(=O)c5ccc(NC(=O)c6ccc(CN(C(=O)c7ccc8c(c7)OCC(=O)N8)C7CC7)cc6)cc5)CC4)cc3C2=O)C(=O)N1` (stereo not drawn) [compound 10l, N-Cyclopropyl-N-(4-((4-((1-(2-(2,6-dioxopiperidin-3-yl)-1,3-dioxoisoindolin-5-yl)piperidin-4-yl)carbamoyl)phenyl)carbamoyl)benzyl)-3-oxo-3,4-dihydro-2H-benzo[b][1,4]oxazine-7-carboxamide]: in data set [1] (iv, i.v. 2 mg/kg), the AUC(0-t) turned out to be 4320 ng·h/mL, the Cmax worked out at 7320 ng/mL, the Tmax is 0.083 h and the clearance was 7.58 mL/min/kg. Also, in data set [1] (iv, i.v. 2 mg/kg), the half-life is 2.1 h and the MRT last was 1.28 h. For the same compound, the Vd in data set [1] (iv, i.v. 2 mg/kg, read-out: Vss) is 0.763 L/kg. Besides, in data set [1] (oral 10 mg/kg), the AUC(0-t) was determined as 777 ng·h/mL, the highest level (Cmax) was 162 ng/mL, the Tmax is 2 h and the bioavailability was 3.67%. Besides, in data set [1] (oral 10 mg/kg), the half-life was 1.52 h and the MRT last was 3.18 h. Besides, the “cell viability in NSD2-overexpressed versus parental SEM cells” value in data set [2] was “significantly higher in NSD2-overexpressed SEM cells”. Moreover, the Dmax in data set [3] (RPMI 8402, RPMI-8402 cells) was over 96%. For the same compound, the Dmax in data set [3] (RPMI 8402, SEM cells) is over 78%. In addition, in data set [3] (RPMI-8402 and SEM cells, 2 μM), the “time at which NSD2 degradation started” value is on record as 4 h and the “time to significant NSD2 degradation” value is at most 8 h. Moreover, the “NSD2 degradation, comparison of degraders” value in data set [3] (RPMI-8402 and SEM cells, 0.5 and 2 μM for 24 h or 2 μM for 12 and 24 h) is “significant NSD2 degradation”. The same compound returned a DC50 in data set [3] (RPMI-8402 cells) of 20 nM. This compound also came in with a 50% degradation concentration (DC50) in data set [3] (SEM cells) of 110 nM.

By AUC(0-t) is commonly meant exposure summed from dosing to a finite time, without extrapolation to infinity. A low value points to less exposure. A word on the Cmax: it is the highest concentration seen after dosing. What is called Tmax is the time at which the peak concentration occurs. As usually defined, the clearance is the volume of plasma or blood freed of the substance per unit of time. Lower therefore signals a low capacity for elimination. By half-life is commonly meant the time in which the quantity being followed falls by half. Usually bioavailability stands for dose-corrected exposure relative to a reference, in per cent. Read a high bioavailability as much systemic uptake. As a reminder, the Dmax is the greatest extent of degradation seen. For orientation: DC50 means the midpoint of the concentration-degradation curve. Low values mean degradation at low concentration, high ones degradation only at high concentration.
